In this test the test system is diabetic rats. Kind of test: Anti-hyperglycemic activity evaluation, Streptozotocin (STZ) model. The format is in vivo, albino rats. The note with it: for inhibition in vivo at 50 mg/kg: compound 50 mg/kg oral; for Blood glucose level 5-day / Blood glucose level 10-day: mean ± SEM, n=6. The procedure:
Diabetes was experimentally generated in albino rats by intraperitoneal injection of a solution of STZ (60 mg/kg) in sterile normal saline. […] Rats were partitioned into 8 groups consisting of 6 rats in each group (n=6). The control group consisted of the first group of diabetic animals serving as vehicle control and treated orally with carboxymethylcellulose (CMC) (0.5%, 1 ml) alone; Group 2 of diabetic rats was treated with rosiglitazone 100 mg/kg. […] Blood collections were operated by tail vein sampling. The measurements of blood glucose were performed at 0, 5 and 10 days interval. Bayer's Contour TS system was used in order to monitor blood glucose level. In overnight-fasted rats, fasting blood glucose level was measured in all the groups as a base line at 0 time. All blood glucose data were expressed as mean±SEM. The analysis of the data including the variance analysis (ANOVA) and all mean comparisons were accomplished by Tukey-Kramer method. Results are regarded as significant when P<0.01. The anti-hyperglycemic activity (AA) was presented as % AA and computed as follows: % AA=100×[blood glucose level (0-day)−blood glucose level (10-day)]/[blood glucose level (0-day)].

Where [1] appears, read: Rattus norvegicus, 240 h, % AA=100×[glucose (0-day)−glucose (10-day)]/[glucose (0-day)].
The mark [2] stands for this setting: compound 50 mg/kg oral for 7 continuous days.

As a reminder, the inhibition in vivo is the percentage by which the read-out fell short of the control. High values mean strong suppression, low ones little suppression. Consider `O=C(CCOc1ccc(C=C2C(=O)NNC2=O)cc1)Nc1nc2ccc(Cl)cc2s1` [Compound 8, N-(6-chlorobenzo[d]thiazol-2-yl)-3-(4-((3,5-dioxopyrazolidin-4-ylidene)methyl)phenoxy)propanamide], for which the inhibition in vivo at 50 mg/kg under setting [1] was found to be 68.7%. Moreover, under setting [2], the “Blood glucose level 5-day” value stood at 166.5 ± 3.7 mg/dL and the “Blood glucose level 10-day” value turned out to be 106.1 ± 5.1 mg/dl.
Under setting [1], `O=C(COc1ccc(C=C2C(=O)NNC2=O)cc1)Nc1nc2ccc(C(F)(F)F)cc2s1` [Compound 2, 2-(4-((3,5-dioxopyrazolidin-4-ylidene)methyl)phenoxy)-N-(6-(trifluoromethyl)benzo[d]thiazol-2-yl)acetamide] displayed an inhibition in vivo at 50 mg/kg of 64.3%. Under setting [2], the “Blood glucose level 5-day” value turned out to be 163.7 ± 2.8 mg/dL and the “Blood glucose level 10-day” value worked out at 123.4 ± 3.5 mg/dl.
Compound `Cc1cc2nc(NC(=O)CCOc3ccc(C=C4C(=O)NNC4=O)cc3)sc2cc1Cl` [Compound 11, N-(6-chloro-5-methylbenzo[d]thiazol-2-yl)-3-(4-((3,5-dioxopyrazolidin-4-ylidene)methyl)phenoxy)propanamide] gave an inhibition in vivo at 50 mg/kg under setting [1] of 68.4%. In addition, under setting [2], the “Blood glucose level 5-day” value worked out at 168.7 ± 3.4 mg/dL and the “Blood glucose level 10-day” value came to 107.0 ± 2.4 mg/dl.
In the same order, the values of `O=C(CCOc1ccc(C=C2C(=O)NNC2=O)cc1)Nc1nc2ccc(C(F)(F)F)cc2s1` [Compound 9, 3-(4-((3,5-dioxopyrazolidin-4-ylidene)methyl)phenoxy)-N-(6-(trifluoromethyl)benzo[d]thiazol-2-yl)propanamide] are 70.1%, 159.6 ± 4.6 mg/dL and 105.4 ± 3.2 mg/dl.
Turning to `O=C(COc1ccc(C=C2C(=O)NNC2=O)cc1)Nc1nc2ccc(Cl)cc2s1` [Compound 1, N-(6-chlorobenzo[d]thiazol-2-yl)-2-(4-((3,5-dioxopyrazolidin-4-ylidene)methyl)phenoxy)acetamide], under setting [1], testing at 50 mg/kg gave an inhibition in vivo of 63.5%. For the same compound, under setting [2], the “Blood glucose level 5-day” value is 157.5 ± 3.7 mg/dL and the “Blood glucose level 10-day” value turned out to be 123.9 ± 4.2 mg/dl.
Under setting [1], `CCc1cc2nc(NC(=O)COc3ccc(C=C4C(=O)NNC4=O)cc3)sc2cc1Cl` [Compound 5, N-(6-chloro-5-ethylbenzo[d]thiazol-2-yl)-2-(4-((3,5-dioxopyrazolidin-4-ylidene)methyl)phenoxy)acetamide] showed an inhibition in vivo at 50 mg/kg of 62.8%. In addition, under setting [2], the “Blood glucose level 5-day” value came to 155.3 ± 3.9 mg/dL and the “Blood glucose level 10-day” value was found to be 127.1 ± 3.1 mg/dl.
`Cc1cc2nc(NC(=O)COc3ccc(C=C4C(=O)NNC4=O)cc3)sc2cc1Cl` [Compound 4, N-(6-chloro-5-methylbenzo[d]thiazol-2-yl)-2-(4-((3,5-dioxopyrazolidin-4-ylidene)methyl)phenoxy)acetamide] had an inhibition in vivo at 50 mg/kg under setting [1] of 66.4%. Also, under setting [2], the “Blood glucose level 5-day” value stood at 160.2 ± 4.1 mg/dL and the “Blood glucose level 10-day” value is on record as 113.4 ± 2.6 mg/dl.
Under setting [1], `Cc1c(Cl)ccc2nc(NC(=O)CCOc3ccc(C=C4C(=O)NNC4=O)cc3)sc12` [Compound 13, N-(6-chloro-7-methylbenzo[d]thiazol-2-yl)-3-(4-((3,5-dioxopyrazolidin-4-ylidene)methyl)phenoxy)propanamide] returned an inhibition in vivo at 50 mg/kg of 65.5%. Further, under setting [2], the “Blood glucose level 5-day” value was found to be 168.4 ± 4.3 mg/dL and the “Blood glucose level 10-day” value came to 119.1 ± 4.3 mg/dl.
In the same order, the values of `O=C(CCOc1ccc(C=C2C(=O)NNC2=O)cc1)Nc1nc2c(Cl)cc(F)cc2s1` [Compound 14, N-(4-chloro-6-fluorobenzo[d]thiazol-2-yl)-3-(4-((3,5-dioxopyrazolidin-4-ylidene)methyl)phenoxy)propanamide] are 68.9%, 162.5 ± 5.6 mg/dL and 109.6 ± 5.4 mg/dl.
The compound `CCc1cc2nc(NC(=O)CCOc3ccc(C=C4C(=O)NNC4=O)cc3)sc2cc1Cl` [Compound 12, N-(6-chloro-5-ethylbenzo[d]thiazol-2-yl)-3-(4-((3,5-dioxopyrazolidin-4-ylidene)methyl)phenoxy)propanamide] came in with an inhibition in vivo at 50 mg/kg under setting [1] of 64.2%. Moreover, under setting [2], the “Blood glucose level 5-day” value was 171.6 ± 5.1 mg/dL and the “Blood glucose level 10-day” value is given as 121.9 ± 3.6 mg/dl.
In the same order, the values of `O=C(COc1ccc(C=C2C(=O)NNC2=O)cc1)Nc1nc2ccc(OC(F)(F)F)cc2s1` [Compound 3, 2-(4-((3,5-dioxopyrazolidin-4-ylidene)methyl)phenoxy)-N-(6-(trifluoromethoxy)benzo[d]thiazol-2-yl)acetamide] are 59.5%, 172.4 ± 3.4 mg/dL and 141.6 ± 2.8 mg/dl.
The compound `Cc1c(Cl)ccc2nc(NC(=O)COc3ccc(C=C4C(=O)NNC4=O)cc3)sc12` [Compound 6, N-(6-chloro-7-methylbenzo[d]thiazol-2-yl)-2-(4-((3,5-dioxopyrazolidin-4-ylidene)methyl)phenoxy)acetamide] had an inhibition in vivo at 50 mg/kg under setting [1] of 58.6%. In addition, under setting [2], the “Blood glucose level 5-day” value turned out to be 161.3 ± 4.5 mg/dL and the “Blood glucose level 10-day” value is on record as 143.9 ± 5.3 mg/dl.
In the same order, the values of `O=C(COc1ccc(C=C2C(=O)NNC2=O)cc1)Nc1nc2c(Cl)cc(F)cc2s1` [Compound 7, N-(4-chloro-6-fluorobenzo[d]thiazol-2-yl)-2-(4-((3,5-dioxopyrazolidin-4-ylidene)methyl)phenoxy)acetamide] are 66.3%, 174.1 ± 4.2 mg/dL and 115.2 ± 4.2 mg/dl.
`CN(CCOc1ccc(CC2SC(=O)NC2=O)cc1)c1ccccn1` (stereo not drawn) [Rosiglitazone, reference compound]: the inhibition in vivo at 100 mg/kg (Rattus norvegicus, po, 240 h, rosiglitazone 100 mg/kg, % AA=100×[glucose (0-day)−glucose (10-day)]/[glucose (0-day)]) is 62%. Under “rosiglitazone 100 mg/kg”, the “Blood glucose level 5-day” value was 162.1 ± 3.8 mg/dL and the “Blood glucose level 10-day” value came to 129.7 ± 3.7 mg/dl.
Under setting [1], `O=C(CCOc1ccc(C=C2C(=O)NNC2=O)cc1)Nc1nc2ccc(OC(F)(F)F)cc2s1` [Compound 10, 3-(4-((3,5-dioxopyrazolidin-4-ylidene)methyl)phenoxy)-N-(6-(trifluoromethoxy)benzo[d]thiazol-2-yl)propanamide] gave an inhibition in vivo at 50 mg/kg of 69.8%. In addition, under setting [2], the “Blood glucose level 5-day” value came out at 153.2 ± 4.2 mg/dL and the “Blood glucose level 10-day” value came out at 105.2 ± 4.7 mg/dl.
